Molecular target: T1, CXCR2 (Homo sapiens, UniProt P25025)
T1 construct: expressed in transfected cells; host or cells: Ba/F3 (Baf3) cells; membranes, clone designation [Hi70]
T1 sequence (P25025 1-360): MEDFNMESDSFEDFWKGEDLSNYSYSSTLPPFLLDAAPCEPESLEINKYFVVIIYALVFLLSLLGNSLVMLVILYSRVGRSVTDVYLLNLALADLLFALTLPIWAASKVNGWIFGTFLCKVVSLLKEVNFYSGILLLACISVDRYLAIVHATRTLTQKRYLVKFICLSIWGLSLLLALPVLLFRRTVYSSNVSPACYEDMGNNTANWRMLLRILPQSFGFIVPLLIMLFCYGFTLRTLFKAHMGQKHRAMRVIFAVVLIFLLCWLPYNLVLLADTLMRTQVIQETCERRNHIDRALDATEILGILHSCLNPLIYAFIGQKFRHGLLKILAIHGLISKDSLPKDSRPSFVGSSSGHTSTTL
Test: [35S]GTPγS Binding Assay: inhibition of agonist (GROα) stimulated [35S]GTPγS exchange in membranes expressing CXCR2
Format: biochemical
Settings: 1 h; 3 nM compound; Baf3/hCXCR2 membranes; percent inhibition at highest chemokine (hGROα) concentration 500 nM; control (no compound) = 0%, standard = 100%; read-out: % Inhibition GTPyS
Experimental: [^35S]GTPγS Binding Assay:
This assay measures the inhibition of agonist (GROα) stimulated guanosine 5′-[γ-^35S]triphospate ([^35S]GTPγS, triethylammonium salt) exchange in membranes expressing CXCR2.
For each assay point, 2 μg of membrane (Baf3/hCXCR22 [Hi70]), 200 μg wheat germ agglutinin-coated SPA beads (WGA-SPA; Amersham, Arlington Heights, Ill.), 3 μM guanosine 5′-diphosphate (GDP) ±3 nM compound are pre-incubated for 3 hrs at room temperature (mixing by inversion) in SPA binding buffer (50 mM TRIS-HCL, 1 mM CaCl2, 5 mM MgCl2, 50 mM NaCl, 0.002% NaN3, 0.1% BSA, 10 μg/ml saponin, pH=7.6).
The bead, membrane, compound mixture is transferred to a 96-well Isoplate (Wallac, Gaithersburg, Md.) and pre-incubated for 60 min with concentrations of chemokine (hGROα) ranging from 500 nM to 1 nM with a no chemokine sample serving as a control. The GTPγS exchange reaction was initiated by the addition of 0.1 nM [^35S]GTPγS and the incubation for 60 min at room temperature. Assay is terminated by the addition of 10 μl “Stop Solution” (0.5M Na-EDTA; 10 μM GDP).
Membrane-bound [^35S]GTPγS was measured using a 1450 Microbeta Trilux counter (Wallac, Gaithersburg, Md.). Data is calculated as percent inhibition at the highest chemokine concentration (500 nM). The control (No compound addition), which is set to 0%, versus the % inhibition of the standard, which is set at 100%. The standard used is: [drawing 19]

| inhibition at 0.003 µM [%] | Structure (SMILES) |
| --- | --- |
| 109 | CC[C@@H](Nc1c(Nc2cccc(C(=O)N(C)C)c2O)c(=O)c1=O)c1cc(C(C)C)c(Br)o1 [Compound 10, 3-[[2-[[1(R)-[5-BROMO-4-(1-METHYL- ETHYL)-2-FURANYL]PROPYL]AMINO]- 3,4,-DIOXO-1-CYCLOBUTEN-1-YL]- AMINO]-2-HYDROXY-N,N-DIMETHYL- BENZAMIDE] |
| 103 | CC[C@@H](Nc1c(Nc2cccc(C(=O)N3CCOCC3)c2O)c(=O)c1=O)c1cc(C2CC2)c(C)o1 [Compound 14, 4-[3-[[2-[[1(R)-(4-CYCLOPROPYL-5- METHYL-2-FURANYL)PROPYL]AMINO]- 3,4-DIOXO-1-CYCLOBUTEN-1-YL]- AMINO]-2-HYDROXYBENZOYL]- MORPHOLINE] |
| 114 | CC[C@@H](Nc1c(Nc2cccc(C(=O)N3CCOCC3)c2O)c(=O)c1=O)c1cc(Br)c(C)o1 [Compound 7, 4-[3-[[2-[[1(R)-(4-BROMO-5-METHYL-2- FURANYL)PROPYL]AMINO]-3,4-DIOXO- 1-CYCLOBUTEN-1-YL]AMINO]-2- HYDROXYBENZOYL]MORPHOLINE] |
| 132 | CC[C@@H](Nc1c(Nc2cccc(C(=O)N3CCCC3)c2O)c(=O)c1=O)c1cc(C(C)C)c(C)o1 [Compound 2, 1-[2-HYDROXY-3-[[2-[[1(R)-[5-METHYL- 4-(1-METHYLETHYL)-2-FURANLY]- PROPYL]AMINO]-3,4-DIOXO-1- CYCLOBUTEN-1-YL]AMINO]-BENZOYL]PYRROLIDINE] |
| 103 | CCc1oc([C@@H](CC)Nc2c(Nc3cccc(C(=O)N4CCC4)c3O)c(=O)c2=O)cc1Br [Compound 15, 1-[3-[[2-[[1(R)-(4-BROMO-5-ETHYL-2- FURANYL)PROPYL]AMINO]-3,4-DIOXO- 1-CYCLOBUTEN-1-YL]AMINO]-2- HYDROXYBENZOYL]AZETIDINE] |
| 122 | CC[C@@H](Nc1c(Nc2cccc(C(=O)N(C)C)c2O)c(=O)c1=O)c1cc(Br)c(C)o1 [Compound 3, 3-[[2-[[1(R)-(4-BROMO-5-METHYL-2- FURANYL)PROPYL]AMINO]-3,4-DIOXO- 1-CYCLOBUTEN-1-YL]AMINO]-2- HYDROXY-N,N-DIMETHYLBENZAMIDE] |
| 110 | CC[C@@H](Nc1c(Nc2cccc(C(=O)N3CCCC3)c2O)c(=O)c1=O)c1cc(Br)c(C)o1 [Compound 9, 1-[3-[[2-[[1(R)-(4-BROMO-5-METHYL-2- FURANYL)PROPYL]AMINO]-3,4-DIOXO- 1-CYCLOBUTEN-1-YL]AMINO]-2- HYDROXYBENZOYL]PYRROLIDINE] |
| 109 | CC[C@@H](Nc1c(Nc2cccc(C(=O)N(C)C)c2O)c(=O)c1=O)c1cc(C2CCCC2)c(C)o1 [Compound 11, 3-[[2-[[1(R)-(4-CYCLOPENTYL-5- METHYL-2-FURANYL)PROPYL]AMINO]- 3,4-DIOXO-1-CYCLOBUTEN-1-YL]- AMINO]-2-HYDROXY-N,N-DIMETHYL- BENZAMIDE] |
| 112 | CC[C@@H](Nc1c(Nc2cccc(C(=O)N(C)C)c2O)c(=O)c1=O)c1cc(C(C)C)c(C)o1 [Compound 8, 2-HYDROXY-N,N-DIMETHYL-3-[[2- [[1(R)-[5-METHYL-4-(1-METHYLETHYL)- 2-FURANYL]PROPYL]AMINO]-3,4- DIOXO-1-CYCLOBUTEN-1-YL]AMINO]- BENZAMIDE] |
| 115 | CC[C@@H](Nc1c(Nc2cccc(C(=O)N3CCC3)c2O)c(=O)c1=O)c1cc(C2CC2)c(C)o1 [Compound 6, 1-[3-[[2-[[1(R)-(4-CYCLOPROPYL-5- METHYL-2-FURANYL)PROPYL]AMINO]- 3,4-DIOXO-1-CYCLOBUTEN-1- YL]AMINO]-2-HYDROXYBENZOYL]- AZETIDINE] |
| 137 | CC[C@@H](Nc1c(Nc2cccc(C(=O)N3CCOCC3)c2O)c(=O)c1=O)c1cc(C(C)C)c(C)o1 [Compound 1, 4-[2-HYDROXY-3-[[2-[[1(R)-[5-METHYL- 4-(1-METHYLETHYL)-2-FURANYL]- PROPYL]AMINO]-3,4-DIOXO-1- CYCLOBUTEN-1-YL]AMINO]BENZOYL]- MORPHOLINE] |
| 119 | CC[C@@H](Nc1c(Nc2cccc(C(=O)N3CC[C@H](O)C3)c2O)c(=O)c1=O)c1cc(Br)c(C)o1 [Compound 5, 1-[3-[[2-[[1(R)-(4-BROMO-5-METHYL-2- FURANYL)PROPYL]AMINO]-3,4-DIOXO- 1-CYCLOBUTEN-1-YL]AMINO]-2- HYDROXYBENZOYL]-3(S)- PYRROLIDINOL] |
| 107 | CC[C@@H](Nc1c(Nc2cccc(C(=O)N(C)C)c2O)c(=O)c1=O)c1cc(C2CC2)c(C)o1 [Compound 12, 3-[[2-[[1(R)-(4-CYCLOPROPYL-5- METHYL-2-FURANYL)PROPYL]AMINO]- 3,4-DIOXO-1-CYCLOBUTEN-1-YL]- AMINO]-2-HYDROXY-N,N-DIMETHYL- BENZAMIDE] |
| 100 | CC[C@@H](Nc1c(Nc2cccc(C(=O)N3CCC3)c2O)c(=O)c1=O)c1cc(C(C)C)c(C)o1 [Compound 17, 1-[2-HYDROXY-3-[[2-[[1(R)-[5-METHYL- 4-(1-METHYLETHYL)-2-FURANYL]- PROPYL]AMINO]-3,4-DIOXO-1- CYCLOBUTEN-1-YL]AMINO]- BENZOYL]AZETIDINE] |
| 101 | CC[C@@H](Nc1c(Nc2cccc(C(=O)N3CC[C@@H](O)C3)c2O)c(=O)c1=O)c1cc(Br)c(C)o1 [Compound 16, 1-[3-[[2-[[1(R)-(4-BROMO-5-METHYL-2- FURANYL)PROPYL]AMINO]-3,4-DIOXO- 1-CYCLOBUTEN-1-YL]AMINO]-2- HYDROXYBENZOYL]-3(R)- PYRROLIDINOL] |
| 105 | CC[C@@H](Nc1c(Nc2cccc(C(=O)N(C)C)c2O)c(=O)c1=O)c1cc(C(C)C)c(C2CC2)o1 [Compound 13, 3-[[2-[[1(R)-[5-CYCLOPROPYL-4-(1- METHYLETHYL)-2-FURANYL]PROPYL]- AMINO]-3,4-DIOXO-1-CYCLOBUTEN-1- YL]AMINO]-2-HYDROXY-N,N- DIMETHYLBENZAMIDE] |
| 99 | CCc1oc([C@@H](CC)Nc2c(Nc3cccc(C(=O)N(C)C)c3O)c(=O)c2=O)cc1Br [Compound 18, 3-[[2-[[1(R)-(4-BROMO-5-ETHYL-2- FURANYL)PROPYL]AMINO]-3,4-DIOXO- 1-CYCLOBUTEN-1-YL]AMINO]-2- HYDROXY-N,N-DIMETHYLBENZAMIDE] |

| Structure (SMILES) | inhibition at 0.003 µM [%] |
| --- | --- |
| CC[C@@H](Nc1c(Nc2cccc(C(=O)N(C)C)c2O)c(=O)c1=O)c1cc(Cl)c(C)o1 [Compound 4, 3-[[2-[[1(R)-(4-CHLORO-5-METHYL-2- FURANYL)PROPYL]AMINO]-3,4-DIOXO- 1-CYCLOBUTEN-1-YL]AMINO]-2- HYDROXY-N,N-DIMETHYLBENZAMIDE] | 120 |

Reference: patent US20080045489A1, “3,4-DI-SUBSTITUTED CYCLOBUTENE-1,2-DIONES AS CXC-CHEMOKINE RECEPTOR LIGANDS” (priority 2006, published 2008)
